Values joined by “and” are separate entries in the source; they are usually repeats but may differ in a detail not shown here. Equal entries are not always repeated.
Columns and labels:
Type in all cases: in vitro ADME
[1] = Kinetic analysis of NCMN-O-demethylation in human liver microsomes; conditions: human, human liver microsomes, pH 7.4; HLM; Michaelis-Menten; substrate 1-150 µM; read-out: Km1 (Km) of NCMN-O-demethylation
Experimental: (§1) The formation rates of NCHN were within the linear range of the protein concentration and incubation time. NCMN (1, 2.5, 5, 7.5, 10, 25, 50, 75, 100 and 150 µM) was incubated with HLM, MLM, RLM, DLM, PLM, CyLM (0.25mg protein/mL) as well as rat CYP1A2 (100 nM) for 30min. The apparent Km and Vmax values were determined by fitting the substrate concentrations versus the metabolite reaction velocities to the Michaelis-Menten equation (Equation (1)) and the Biphasic Kinetics equation (Equation (2)), and the results were graphically represented by Eadie-Hofstee plots. (1) v=Vmax[S]/Km+[S] (2) v=Vmax 1[S]/Kmax 1+[S]+Vmax 2[S]/Kmax 2+[S] where v is the rate of the reaction, Vmax is the maximum velocity estimate, Km is the substrate affinity constant, [S] is the substrate concentration.
(§2) The UFLC system consisted of a SIL-20ACHT auto sampler, a DGU-20A3 in-line degasser, a CBM-20A communications bus module, a CTO-20AC column oven, two LC-20AD pumps and an SPD-M20A photodiode array detector were used for analyzing the samples. The separation of NCMN and its metabolites was achieved on a Shim-pack XR-ODS (75 mm × 2.0 mm, 2.2 µm, Shimadzu, Kyoto, Japan) analytical column with an ODS guard column (5 mm × 2.0 mm, 2.2 µm, Shimadzu, Kyoto, Japan). The O-demethylation was quantified at the detector wavelength of 243 nm. […] The column oven was kept at 40 °C.

[2] = system: human liver microsomes (HLM); experiment: as above; conditions: Michaelis-Menten, substrate 1-150 µM
Experimental: as §1, §2

[3] = system: cynomolgus monkey liver microsomes (CyLM); experiment: Kinetic analysis of NCMN-O-demethylation in cynomolgus monkey liver microsomes; conditions: biphasic kinetics, substrate 1-150 µM
Experimental: as §1, §2

[4] = Kinetic analysis of NCMN-O-demethylation in beagle dog liver microsomes; conditions: beagle, dog, beagle dog liver microsomes, pH 7.4; DLM; Michaelis-Menten; substrate 1-150 µM; read-out: Km1 (Km) of NCMN-O-demethylation
Experimental: as §1, §2

[5] = system: beagle dog liver microsomes (DLM); experiment: as above; conditions: Michaelis-Menten, substrate 1-150 µM
Experimental: as §1, §2

[6] = system: minipig liver microsomes (PLM); experiment: Kinetic analysis of NCMN-O-demethylation in minipig liver microsomes; conditions: biphasic kinetics, substrate 1-150 µM
Experimental: as §1, §2

[7] = Kinetic analysis of NCMN-O-demethylation in mouse liver microsomes; conditions: mouse, mouse liver microsomes, pH 7.4; MLM; Michaelis-Menten; substrate 1-150 µM; read-out: Km1 (Km) of NCMN-O-demethylation
Experimental: as §1, §2

[8] = system: mouse liver microsomes (MLM); experiment: as above; conditions: Michaelis-Menten, substrate 1-150 µM
Experimental: as §1, §2

[9] = system: rat liver microsomes (RLM); experiment: Kinetic analysis of NCMN-O-demethylation in rat liver microsomes; conditions: biphasic kinetics, substrate 1-150 µM
Experimental: as §1, §2

SMILES: COc1ccc2c3c(cccc13)C(=O)N(CCCC(=O)O)C2=O [NCMN, N-(3-carboxypropyl)-4-methoxy-1,8-naphthalimide]
- Km at 30 min [1]: 9.54 ± 0.24 µM
- Vm1 (Vmax) of NCMN-O-demethylation [2]: 25.61 ± 0.15 nmol/min/mg
- Km1 of NCMN-O-demethylation [3]: 198.70 ± 39.66 µM
- Km2 of NCMN-O-demethylation [3]: 0.18 ± 0.09 µM
- Vm1 of NCMN-O-demethylation [3]: 8.43 ± 0.91 nmol/min/mg
- Vm2 of NCMN-O-demethylation [3]: 0.28 ± 0.08 nmol/min/mg
- Km at 30 min [4]: 61.8 ± 3.52 µM
- Vm1 (Vmax) of NCMN-O-demethylation [5]: 13.53 ± 0.34 nmol/min/mg
- Km1 of NCMN-O-demethylation [6]: 242.80 ± 111.80 µM
- Km2 of NCMN-O-demethylation [6]: 5.70 ± 3.27 µM
- Vm1 of NCMN-O-demethylation [6]: 28.22 ± 5.82 nmol/min/mg
- Vm2 of NCMN-O-demethylation [6]: 3.35 ± 1.20 nmol/min/mg
- Km at 30 min [7]: 22.8 ± 1.22 µM
- Vm1 (Vmax) of NCMN-O-demethylation [8]: 33.17 ± 0.42 nmol/min/mg
- Km1 of NCMN-O-demethylation [9]: 1134.00 µM and 1134.00 ± 482.10 µM
- Km2 of NCMN-O-demethylation [9]: 5.66 ± 0.80 µM
- Vm1 of NCMN-O-demethylation [9]: 78.42 ± 31.17 nmol/min/mg
- Vm2 of NCMN-O-demethylation [9]: 5.71 ± 0.45 nmol/min/mg

Reference: paper PMC6695839, “Interspecies Variation in NCMN-O-Demethylation in Liver Microsomes from Various Species” (Molecules, 2019)
